This passage reports EC50 and IC50 results from patent US12590099B2, “Inhibitors of histone deacetylase useful for the treatment or prevention of HIV infection” (Merck Sharp & Dohme LLC, priority 2018, dated 2026).

Read-outs that look alike come from different tables or passages of the source. Bounds are passed on as bounds.

In one experiment the test system is KARN cells (Jurkat 2C4). As to the kind of experiment: cells. The class given is cell-based. The essentials: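 Jurkat 2C4 (KARN) cells dosed with test compounds up to 40 μM final, 0.4% DMSO, overnight at 5% CO2; luciferase read by Steady-Glo luminescence after 10 min at room temperature. DMSO set as 0% and 2 μM SAHA as 100% induction; 4-parameter fit of percent activation.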

Experiment [1] concerns the target T1, Recombinant human HDAC3/SMRT heterodimer (Homo sapiens, UniProt O15379).
T1 construct: FLAG (C); made in house
Briefly: Human HDAC enzyme inhibitor Fluor-de-Lys assay, HDAC3/SMRT. The class given is biochemical.

The mark [2] stands for this setting: Homo sapiens, Jurkat, read-out: Karn EC50 (nM) 0.1% NHS, 0.1% normal human serum, luciferase induction, 100% = 2 μM SAHA.
Setting [3] is: Homo sapiens, Jurkat, read-out: Karn EC50 (nM) 5% NHS, 5% normal human serum, luciferase induction, 100% = 2 μM SAHA.
The mark [4] stands for this setting: recombinant human HDAC3/SMRT, Fluor-de-Lys assay.
The mark [5] stands for this setting: Homo sapiens, Jurkat, read-out: Karn EC50 (nM) 0.1% NHS, 0.1% normal human serum.
The mark [6] stands for this setting: Homo sapiens, Jurkat, read-out: Karn EC50 (nM) 5% NHS, 5% normal human serum.

T1 sequence (O15379 whole entry): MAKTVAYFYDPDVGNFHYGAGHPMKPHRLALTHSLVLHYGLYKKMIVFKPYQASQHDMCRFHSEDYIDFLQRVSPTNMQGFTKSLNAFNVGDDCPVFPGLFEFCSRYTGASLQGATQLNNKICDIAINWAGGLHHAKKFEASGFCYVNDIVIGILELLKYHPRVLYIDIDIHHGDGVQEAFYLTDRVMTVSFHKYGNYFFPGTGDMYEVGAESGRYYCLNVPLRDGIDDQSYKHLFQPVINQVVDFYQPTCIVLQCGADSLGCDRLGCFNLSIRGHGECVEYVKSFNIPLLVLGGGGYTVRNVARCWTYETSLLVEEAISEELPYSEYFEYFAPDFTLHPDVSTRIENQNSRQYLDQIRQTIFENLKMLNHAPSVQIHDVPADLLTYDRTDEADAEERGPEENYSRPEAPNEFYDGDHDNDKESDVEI
T1 sequence (Q9Y618 1-899 partner limits assumed): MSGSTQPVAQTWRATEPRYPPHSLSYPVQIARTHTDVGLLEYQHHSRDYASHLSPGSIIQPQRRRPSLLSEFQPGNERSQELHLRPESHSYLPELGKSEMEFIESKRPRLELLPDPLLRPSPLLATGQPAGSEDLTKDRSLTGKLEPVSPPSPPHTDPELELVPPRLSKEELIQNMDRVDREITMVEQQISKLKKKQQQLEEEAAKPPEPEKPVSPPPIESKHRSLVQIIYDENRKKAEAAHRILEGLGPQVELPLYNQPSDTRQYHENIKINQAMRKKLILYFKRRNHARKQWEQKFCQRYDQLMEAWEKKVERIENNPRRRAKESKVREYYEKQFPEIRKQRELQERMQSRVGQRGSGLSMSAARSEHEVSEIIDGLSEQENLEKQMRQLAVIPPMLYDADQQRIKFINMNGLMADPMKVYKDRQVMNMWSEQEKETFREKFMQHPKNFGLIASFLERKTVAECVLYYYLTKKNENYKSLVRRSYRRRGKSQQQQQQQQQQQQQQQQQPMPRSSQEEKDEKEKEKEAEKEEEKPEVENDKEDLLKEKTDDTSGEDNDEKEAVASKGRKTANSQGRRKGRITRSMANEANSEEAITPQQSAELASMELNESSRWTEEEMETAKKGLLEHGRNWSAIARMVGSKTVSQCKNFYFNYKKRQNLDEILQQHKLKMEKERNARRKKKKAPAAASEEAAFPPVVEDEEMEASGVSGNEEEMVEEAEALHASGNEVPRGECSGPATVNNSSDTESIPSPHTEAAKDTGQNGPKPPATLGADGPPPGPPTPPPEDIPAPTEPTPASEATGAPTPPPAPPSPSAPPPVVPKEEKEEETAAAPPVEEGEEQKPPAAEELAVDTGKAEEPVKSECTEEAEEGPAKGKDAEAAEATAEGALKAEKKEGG

In general, EC50 refers to the concentration that produces a half-maximal response. As a reminder, the IC50 is the concentration that gives 50% inhibition. As to `CCC(=O)CCCCC[C@H](NC(=O)CC1CC2(C1)CN(C(C)=O)C2)c1ncc(-c2ccccc2)[nH]1` [Compound 300, (S)-2-(2-acetyl-2-azaspiro[3.3]heptan-6-yl)-N-(7-oxo-1-(5-phenyl-1H-imidazol-2-yl)nonyl)acetamide], the EC50 is 9210 nM in the experiment on KARN cells (Jurkat 2C4) (setting [2]) and 10200 nM in the experiment with KARN cells (Jurkat 2C4) (setting [3]). For the same compound, the IC50 in experiment [1] (setting [4]) worked out at 0.0387 µM.

As to `CCC(=O)CCCCC[C@@H](NC(=O)C1CCC2(CC1)CNC2)c1ncc(-c2ccccc2)[nH]1` [Compound 298], the results for the EC50 with KARN cells (Jurkat 2C4) (setting [2]) and in the experiment with KARN cells (Jurkat 2C4) (setting [3]) were 7010 nM and 11800 nM, respectively. In addition, the half-maximal inhibitory concentration (IC50) in experiment [1] (setting [4]) amounted to 0.0104 µM.

Take `CCC(=O)CCCCC[C@@H](NC(=O)C1CCC2(CC1)CN(C)C2)c1ncc(-c2ccccc2)[nH]1` [Compound 310]: the EC50 was determined as 1490 nM in the experiment with KARN cells (Jurkat 2C4) (setting [2]) and 1920 nM in the experiment with KARN cells (Jurkat 2C4) (setting [3]). In addition, the concentration for half-maximal inhibition (IC50) in experiment [1] (setting [4]) came to 0.0104 µM.

For `CCC(=O)CCCCC[C@H](NC(=O)C1=NOC2(CCN(CC3CC3)CC2)C1)c1ncc(-c2cc3ccc(=O)n(C)c3cc2OC)o1` [Compound 236], the 50% effective concentration (EC50) in the experiment on KARN cells (Jurkat 2C4) (setting [2]) is 442 nM; in the experiment on KARN cells (Jurkat 2C4) (setting [3]), 476 nM. Besides, the IC50 in experiment [1] (setting [4]) was found to be 0.00107 µM.

Regarding `CCC(=O)CCCCC[C@H](NC(=O)C1=NOC2(CCN(CC)CC2)C1)c1ncc(-c2cc3ccc(C)nc3cc2F)[nH]1` [Compound 233], the half-maximal effective concentration (EC50) with KARN cells (Jurkat 2C4) (setting [2]) was 166 nM; in the experiment with KARN cells (Jurkat 2C4) (setting [3]) it was 230 nM. The 50% inhibitory concentration (IC50) in experiment [1] (setting [4]) was determined as 0.0088 µM.

Turning to `CCCC(=O)CCCCC[C@H](NC(=O)[C@H]1CC12CCN(C)CC2)c1ncc(-c2ccc(F)cc2)[nH]1` [Compound 239], the EC50 amounted to 324 nM with KARN cells (Jurkat 2C4) (setting [2]) and 581 nM in the experiment on KARN cells (Jurkat 2C4) (setting [3]). In experiment [1] (setting [4]), the IC50 was 0.0153 µM.

Turning to `CCC(=O)CCCCC[C@H](NC(=O)[C@H]1CC12CCN(C(C)C)CC2)c1ncc(-c2ccc3nc(C4CC4)ccc3c2)[nH]1` [Compound 100], the figures for the 50% effective concentration (EC50) in the experiment on KARN cells (Jurkat 2C4) (setting [5]) and in the experiment with KARN cells (Jurkat 2C4) (setting [6]) were 68 nM and 64 nM, respectively. Besides, in experiment [1], the half-inhibitory concentration (IC50) was < 0.0015 µM.

With `CCC(=O)CCCCC[C@H](NC(=O)C1=NOC2(CCN(CC)CC2)C1)c1ncc(-c2cc3ccc(C)nc3cc2F)o1` [Compound 269], the 50% effective concentration (EC50) in the experiment with KARN cells (Jurkat 2C4) (read-out: Karn EC50 (nM) 0.1% NHS, 0.1% normal human serum, luciferase induction, 100% = 2 μM SAHA) came to 746 nM; in the experiment with KARN cells (Jurkat 2C4) (read-out: Karn EC50 (nM) 5% NHS, 5% normal human serum, luciferase induction, 100% = 2 μM SAHA) it was 1210 nM. Further, the IC50 in experiment [1] (setting [4]) came out at 0.0083 µM.

For the compound `CCC(=O)CCCCC[C@H](NC(=O)[C@H]1CC12CCN(C)CC2)c1ncc(-c2ccc3nc(C)ccc3c2)o1` [Compound 80], the values for the concentration giving a half-maximal response (EC50) with KARN cells (Jurkat 2C4) (setting [5]) and with KARN cells (Jurkat 2C4) (setting [6]) were 435 nM and 501 nM, respectively. Also, in experiment [1], the half-maximal inhibitory concentration (IC50) came out at 0.00296 µM.

For `CCC(=O)CCCCC[C@H](NC(=O)C1CC12CCN(CC)CC2)c1nc(-c2ccc(F)cc2)[nH]c1-c1cn[nH]c1` (some centres unmarked) [Compound 249], the half-maximal effective concentration (EC50) in the experiment with KARN cells (Jurkat 2C4) (setting [2]) was > 40000 nM. Further, the IC50 in experiment [1] (setting [4]) is 0.0201 µM.

Turning to `CCC(=O)CCCCC[C@H](NC(=O)C1=NOC2(CCN(C)CC2)C1)c1ncc(-c2ccc(-c3cccnc3)cc2OC)o1` [Compound 222, N-{(1S)-1-[5-(2-methoxy-4-pyridin-3-ylphenyl)-1,3-oxazol-2-yl]-7-oxononyl}-8-methyl-1-oxa-2,8-diazaspiro[4.5]dec-2-ene-3-carboxamide], the half-maximal effective concentration (EC50) was found to be 298 nM in the experiment on KARN cells (Jurkat 2C4) (setting [2]) and 364 nM in the experiment on KARN cells (Jurkat 2C4) (setting [3]). In experiment [1] (setting [4]), the half-inhibitory concentration (IC50) is 0.00467 µM.

For the compound `CCCn1cc(-c2[nH]c(-c3ccc(F)cc3)nc2C(CCCCCC(=O)CC)NC(=O)C2CC23CCN(CC)CC3)cn1` (centres unmarked) [Compound 254], the values for the EC50 in the experiment with KARN cells (Jurkat 2C4) (setting [2]) and with KARN cells (Jurkat 2C4) (setting [3]) were 5340 nM and 6040 nM, respectively. In experiment [1] (setting [4]), the half-maximal inhibitory concentration (IC50) is 0.0296 µM.
